Assay results published in patent US7626031B2, “Substituted 3-(diarylmethylene)indolin-2-ones and methods of their use” (Symphony Evolution, Inc., priority 2002, dated 2009).

How the values were obtained:
[1] = molecular target: T1, KDR (baculovirus expressed human KDR kinase domain D807-V1356) (Homo sapiens, UniProt P35968); assay: biochemical
T1 construct: human KDR kinase domain D807-V1356; host or cells: baculovirus expression system
Method: (§1) Kinase activity and compound inhibition are investigated using one or more assay formats. The ATP concentrations for each assay are selected to be close to the Michaelis-Menten constant (KM) for each individual kinase. Dose-response experiments are performed at 10 different inhibitor concentrations in a 384-well plate format. […] Exemplary kinase assays are described below. KDR Assay
KDR biochemical activity was assessed using a Luciferase-Coupled Chemiluminescent Kinase assay (LCCA) format. Kinase activity was measured as the percent ATP remaining following the kinase reaction. Remaining ATP was detected by luciferase-luciferin-coupled chemiluminescence. […] The mixture is incubated at ambient temperature for 4 hours after which 20 uL luciferase-luciferin mix is added and the chemiluminescent signal read using a Wallac Victor^2 reader.

EphA2 = EphA2 (Homo sapiens, UniProt P29317); assay: Kinase assay, EphA2 (33P-ATP incorporation or luciferase-coupled ATP consumption); format: biochemical
Method: (§2) Kinase assays were performed by measurement of incorporation of γ-^33P ATP into immobilized myelin basic protein (MBP). […] Plates were washed 3× with 100 μl TBS. […] Compound dilutions were performed in DMSO and added to assay wells to a final DMSO concentration of 1%. Each data point was measured in duplicate, and at least two duplicate assays were performed for each individual compound determination. Enzyme was added to final concentrations of 10 nM or 20 nM, for example. A mixture of unlabeled ATP and γ-^33P ATP was added to start the reaction (2×10^6 cpm of γ-^33P ATP per well (3000 Ci/mmole) and either 10 μM or 30 μM unlabeled ATP, typically. The reactions were carried out for 1 hour at room temperature with shaking. Plates were washed 7× with TBS, followed by the addition of 50 μl/well scintillation fluid (Wallac). Plates were read using a Wallac Trilux counter. This is only one format of such assays, various other formats are possible, as known to one of ordinary skill in the art.
(§3) Tyrosine kinase activity is determined by 1) measurement of kinase-dependent ATP consumption by in the presence of a generic substrate such as, polyglutamic acid, tyrosine, 4:1 (pEY), by luciferase/luciferin-mediated chemiluminescence or; 2) incorporation of radioactive phosphate derived from ^33P-ATP into a generic substrate which has been adsorbed onto the well surface of polystyrene microtiter plates. Phosphorylated substrate products are quantified by scintillation spectrometry.
as §1

Flt-1 = Flt-1 (Homo sapiens, UniProt P17948); assay: Kinase assay, Flt-1 (33P-ATP incorporation or luciferase-coupled ATP consumption); format: biochemical; details: read-out: Flt1 IC50
Method: as §2, §3, §1

EGFR = EGFR (Homo sapiens, UniProt P00533); assay: Kinase assay, EGFR (33P-ATP incorporation or luciferase-coupled ATP consumption); format: biochemical
Method: as §2, §3, §1

PDGFR alpha = PDGFR alpha (Homo sapiens, UniProt P16234); assay: Kinase assay, PDGFR alpha (33P-ATP incorporation or luciferase-coupled ATP consumption); format: biochemical; details: read-out: PDGF-R-A IC50
Method: as §2, §3, §1

Fyn = Fyn (Homo sapiens, UniProt P06241); assay: Kinase assay, Fyn; format: biochemical
Method: as §1

IRK = IRK (Homo sapiens, UniProt P06213); assay: Kinase assay, IRK; format: biochemical
Method: as §1

FGFR1 = FGFR1 (Homo sapiens, UniProt P11362); assay: Kinase assay, FGFR1 (33P-ATP incorporation or luciferase-coupled ATP consumption); format: biochemical
Method: as §2, §3, §1

Chain of FGFR1 (P11362 22-822, species assumed): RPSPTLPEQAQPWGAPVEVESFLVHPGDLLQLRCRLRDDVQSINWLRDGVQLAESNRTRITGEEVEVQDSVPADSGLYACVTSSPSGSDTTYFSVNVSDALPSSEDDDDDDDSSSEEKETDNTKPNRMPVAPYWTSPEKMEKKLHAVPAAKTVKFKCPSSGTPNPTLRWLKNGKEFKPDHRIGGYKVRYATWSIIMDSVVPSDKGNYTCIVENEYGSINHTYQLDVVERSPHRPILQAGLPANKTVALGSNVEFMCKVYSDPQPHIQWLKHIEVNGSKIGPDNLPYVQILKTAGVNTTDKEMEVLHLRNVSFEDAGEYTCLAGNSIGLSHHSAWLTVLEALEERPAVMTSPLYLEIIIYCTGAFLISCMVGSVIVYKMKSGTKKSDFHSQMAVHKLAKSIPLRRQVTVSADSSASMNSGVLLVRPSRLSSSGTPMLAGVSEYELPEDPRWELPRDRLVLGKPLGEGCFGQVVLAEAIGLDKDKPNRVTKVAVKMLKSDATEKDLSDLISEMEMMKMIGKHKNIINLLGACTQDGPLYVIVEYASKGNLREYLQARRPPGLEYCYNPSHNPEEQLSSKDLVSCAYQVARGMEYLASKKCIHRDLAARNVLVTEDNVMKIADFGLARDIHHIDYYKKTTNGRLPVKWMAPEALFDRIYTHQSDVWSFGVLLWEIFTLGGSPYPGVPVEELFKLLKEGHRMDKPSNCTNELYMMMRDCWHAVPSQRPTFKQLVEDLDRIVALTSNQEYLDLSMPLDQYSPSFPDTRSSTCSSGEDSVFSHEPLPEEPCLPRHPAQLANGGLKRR
Chain of EphA2 (P29317 24-976, species assumed): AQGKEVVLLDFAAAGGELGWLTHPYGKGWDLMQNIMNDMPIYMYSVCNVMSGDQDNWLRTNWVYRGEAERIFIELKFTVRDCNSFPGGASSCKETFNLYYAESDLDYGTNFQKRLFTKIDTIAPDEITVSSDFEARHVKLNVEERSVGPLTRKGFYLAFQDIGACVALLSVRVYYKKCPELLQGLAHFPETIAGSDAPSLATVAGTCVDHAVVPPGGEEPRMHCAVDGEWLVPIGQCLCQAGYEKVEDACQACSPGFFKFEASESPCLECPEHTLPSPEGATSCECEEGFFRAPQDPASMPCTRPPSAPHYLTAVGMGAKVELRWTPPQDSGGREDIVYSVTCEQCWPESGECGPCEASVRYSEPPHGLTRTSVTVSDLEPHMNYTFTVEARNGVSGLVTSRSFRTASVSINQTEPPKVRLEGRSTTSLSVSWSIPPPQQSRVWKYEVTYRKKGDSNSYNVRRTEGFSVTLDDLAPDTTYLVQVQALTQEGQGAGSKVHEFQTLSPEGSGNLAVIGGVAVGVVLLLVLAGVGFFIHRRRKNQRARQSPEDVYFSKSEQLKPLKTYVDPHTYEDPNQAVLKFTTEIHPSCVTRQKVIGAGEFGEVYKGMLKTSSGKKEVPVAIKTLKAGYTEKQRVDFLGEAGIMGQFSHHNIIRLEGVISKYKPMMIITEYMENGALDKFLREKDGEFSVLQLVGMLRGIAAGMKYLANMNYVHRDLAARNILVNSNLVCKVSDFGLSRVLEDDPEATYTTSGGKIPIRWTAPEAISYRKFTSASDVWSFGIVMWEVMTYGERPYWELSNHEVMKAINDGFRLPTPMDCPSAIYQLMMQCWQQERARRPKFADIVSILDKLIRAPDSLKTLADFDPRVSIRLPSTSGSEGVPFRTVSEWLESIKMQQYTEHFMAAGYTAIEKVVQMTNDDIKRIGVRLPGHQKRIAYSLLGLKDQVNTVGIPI
Chain of PDGFR alpha (P16234 24-1089): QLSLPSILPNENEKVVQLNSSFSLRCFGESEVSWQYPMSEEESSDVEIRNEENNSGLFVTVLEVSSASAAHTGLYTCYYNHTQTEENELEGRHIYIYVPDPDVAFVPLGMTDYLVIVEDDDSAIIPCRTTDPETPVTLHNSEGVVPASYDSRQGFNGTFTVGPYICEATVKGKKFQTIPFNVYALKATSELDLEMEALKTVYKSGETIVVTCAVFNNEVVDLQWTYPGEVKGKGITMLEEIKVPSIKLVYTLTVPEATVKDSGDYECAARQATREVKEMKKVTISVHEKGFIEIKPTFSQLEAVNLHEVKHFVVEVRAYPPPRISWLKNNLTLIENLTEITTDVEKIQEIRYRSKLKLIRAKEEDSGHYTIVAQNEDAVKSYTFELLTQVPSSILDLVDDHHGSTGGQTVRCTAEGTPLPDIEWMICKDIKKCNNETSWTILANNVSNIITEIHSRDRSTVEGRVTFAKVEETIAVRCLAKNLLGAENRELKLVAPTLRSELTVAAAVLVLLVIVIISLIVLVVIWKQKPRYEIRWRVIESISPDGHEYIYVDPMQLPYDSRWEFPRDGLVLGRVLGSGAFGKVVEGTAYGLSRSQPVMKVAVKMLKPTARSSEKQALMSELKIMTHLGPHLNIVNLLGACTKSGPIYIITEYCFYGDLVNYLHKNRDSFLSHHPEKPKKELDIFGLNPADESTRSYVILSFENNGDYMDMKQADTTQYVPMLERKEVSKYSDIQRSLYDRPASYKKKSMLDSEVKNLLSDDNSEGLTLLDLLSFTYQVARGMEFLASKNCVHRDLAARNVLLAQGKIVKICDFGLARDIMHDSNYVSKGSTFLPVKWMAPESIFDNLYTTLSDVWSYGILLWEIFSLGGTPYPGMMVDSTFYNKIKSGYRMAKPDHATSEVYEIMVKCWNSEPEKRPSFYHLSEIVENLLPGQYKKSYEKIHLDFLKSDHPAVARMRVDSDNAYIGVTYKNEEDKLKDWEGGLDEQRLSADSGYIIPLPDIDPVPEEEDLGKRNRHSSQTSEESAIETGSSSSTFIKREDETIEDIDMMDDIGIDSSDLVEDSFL
Chain of Fyn (P06241 whole entry, species assumed): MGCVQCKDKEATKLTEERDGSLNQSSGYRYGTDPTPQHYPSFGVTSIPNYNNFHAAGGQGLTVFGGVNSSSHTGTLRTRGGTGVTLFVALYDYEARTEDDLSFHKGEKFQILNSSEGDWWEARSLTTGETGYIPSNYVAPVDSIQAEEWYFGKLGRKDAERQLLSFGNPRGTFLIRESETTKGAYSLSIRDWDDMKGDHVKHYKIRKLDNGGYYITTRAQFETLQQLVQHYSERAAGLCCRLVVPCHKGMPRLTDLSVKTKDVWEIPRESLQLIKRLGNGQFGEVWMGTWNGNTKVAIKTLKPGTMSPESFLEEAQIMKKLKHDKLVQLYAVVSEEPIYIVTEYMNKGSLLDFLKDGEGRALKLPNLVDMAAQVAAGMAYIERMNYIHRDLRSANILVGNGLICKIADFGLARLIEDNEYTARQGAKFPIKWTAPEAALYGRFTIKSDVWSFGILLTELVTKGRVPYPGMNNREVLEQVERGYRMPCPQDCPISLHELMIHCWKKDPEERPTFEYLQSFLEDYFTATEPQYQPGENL
Chain of Flt-1 (P17948 27-1338, species assumed): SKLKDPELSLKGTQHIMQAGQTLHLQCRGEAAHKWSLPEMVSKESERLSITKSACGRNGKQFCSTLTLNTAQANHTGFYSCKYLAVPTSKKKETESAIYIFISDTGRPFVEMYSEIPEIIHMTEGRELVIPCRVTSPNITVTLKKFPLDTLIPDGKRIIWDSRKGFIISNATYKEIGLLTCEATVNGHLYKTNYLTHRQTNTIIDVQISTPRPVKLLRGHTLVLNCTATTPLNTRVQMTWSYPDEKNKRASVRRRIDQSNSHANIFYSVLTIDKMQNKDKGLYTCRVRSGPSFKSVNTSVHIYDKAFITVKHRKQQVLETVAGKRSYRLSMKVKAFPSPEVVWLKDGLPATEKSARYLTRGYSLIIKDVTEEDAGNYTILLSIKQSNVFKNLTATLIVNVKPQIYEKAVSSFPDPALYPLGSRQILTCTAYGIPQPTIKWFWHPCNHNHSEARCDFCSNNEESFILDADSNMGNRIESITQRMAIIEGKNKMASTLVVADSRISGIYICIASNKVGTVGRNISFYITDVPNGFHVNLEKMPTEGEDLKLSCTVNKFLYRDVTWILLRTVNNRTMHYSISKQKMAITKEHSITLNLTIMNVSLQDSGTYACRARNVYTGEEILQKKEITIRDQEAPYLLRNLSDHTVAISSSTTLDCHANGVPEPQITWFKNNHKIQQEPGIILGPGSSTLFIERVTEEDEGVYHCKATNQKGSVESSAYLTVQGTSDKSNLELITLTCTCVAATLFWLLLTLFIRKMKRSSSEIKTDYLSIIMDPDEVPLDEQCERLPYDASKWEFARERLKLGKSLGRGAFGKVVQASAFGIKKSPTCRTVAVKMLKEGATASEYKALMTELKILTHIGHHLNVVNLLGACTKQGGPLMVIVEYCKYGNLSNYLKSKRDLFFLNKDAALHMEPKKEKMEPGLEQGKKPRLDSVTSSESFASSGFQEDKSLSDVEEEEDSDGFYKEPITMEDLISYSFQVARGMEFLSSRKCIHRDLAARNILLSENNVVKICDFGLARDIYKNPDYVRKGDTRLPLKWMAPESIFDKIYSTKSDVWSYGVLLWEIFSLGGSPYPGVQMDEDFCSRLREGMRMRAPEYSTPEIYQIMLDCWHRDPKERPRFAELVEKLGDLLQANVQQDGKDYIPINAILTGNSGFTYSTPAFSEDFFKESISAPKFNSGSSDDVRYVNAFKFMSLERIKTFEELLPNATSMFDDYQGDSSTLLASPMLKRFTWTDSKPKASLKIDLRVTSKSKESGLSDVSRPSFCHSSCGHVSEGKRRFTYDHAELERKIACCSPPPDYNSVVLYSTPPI

SMILES	IC50 [1]	IC50 (EphA2)	IC50 (Flt-1)	IC50 (EGFR)	IC50 (PDGFR alpha)	IC50 (Fyn)	IC50 (IRK)	IC50 (FGFR1)
COc1ccc2[nH]c(/C(=C3\C(=O)Nc4ccc(NC5CCN(Cc6ccccc6)C5)cc43)c3ccccc3)nc2c1 (centres unmarked) [Entry 1, (3Z)-3-[[5-(methyloxy)-1H-benzimidazol-2-yl](phenyl)methylidene[-5-}[1-(phenylmethyl)pyrrolidin-3-yl]amino}-1,3-dihydro-2H-indol-2-one]	< 50 nM	500 to 5000 nM	50 to 500 nM	500 to 5000 nM	50 to 500 nM	50 to 500 nM	> 5000 nM	–
CCN1CCC(Nc2ccc3c(c2)/C(=C(\c2ccc(OC)cc2)c2nc4cc(OC)ccc4[nH]2)C(=O)N3)CC1 [Entry 5, (3Z)-5-[(1-ethylpiperidin-4-yl)amino]-3-{[5-(methyloxy)-1H-benzimidazol-2-yl][4-(methyloxy)phenyl]methylidene}-1,3-dihydro-2H-indol-2-one]	< 50 nM	> 5000 nM	50 to 500 nM	500 to 5000 nM	< 50 nM	< 50 nM	500 to 5000 nM	–
CCN1CCC(Nc2ccc3c(c2)/C(=C(\c2ccc(C)cc2)c2nc4cc(OC)ccc4[nH]2)C(=O)N3)CC1 [Entry 6, (3Z)-5-[(1-ethylpiperidin-4-yl)amino]-3-[[5-(methyloxy)-1 H-benzimidazol-2-yl](4-methylphenyl)methylidene]-1,3-dihydro-2H-indol-2-one]	< 50 nM	500 to 5000 nM	50 to 500 nM	500 to 5000 nM	< 50 nM	< 50 nM	500 to 5000 nM	–
CCN1CCC(Nc2ccc3c(c2)/C(=C(\c2ccc([N+](=O)[O-])cc2)c2nc4ccccc4[nH]2)C(=O)N3)CC1 [Entry 7, (3Z)-3-(1H-benzimidazol-2-yl(4-nitrophenyl)methylidene]-5-[(1-ethylpiperidin-4-yl)amino]-1,3-dihydro-2H-indol-2-one]	< 50 nM	> 5000 nM	50 to 500 nM	500 to 5000 nM	< 50 nM	50 to 500 nM	> 5000 nM	–
COc1ccc2[nH]c(/C(=C3\C(=O)Nc4ccc(NC5CC(C)(C)NC(C)(C)C5)cc43)c3ccccc3)nc2c1 [Entry 10, (3Z)-3-[[5-(methyloxy)-1H-benzimidazol-2-yl](phenyl)methylidene]-5-[(2,2,6,6-tetramethylpiperidin-4-yl)amino]-1,3-dihydro-2H-indol-2-one]	500 to 5000 nM	500 to 5000 nM	500 to 5000 nM	500 to 5000 nM	50 to 500 nM	500 to 5000 nM	500 to 5000 nM	–
CCN1CCC(Nc2ccc3c(c2)/C(=C(\c2ccc(N)cc2)c2nc4ccccc4[nH]2)C(=O)N3)CC1 [Entry 11, (3Z)-3-[(4-aminophenyl)(1H-benzimidazol-2-yl)methylidene]-5-[(1-ethylpiperidin-4-yl)amino]1,3-dihydro-2H-indol-2-one]	< 50 nM	500 to 5000 nM	50 to 500 nM	50 to 500 nM	< 50 nM	< 50 nM	500 to 5000 nM	–
CCN1CCC(Nc2ccc3c(c2)/C(=C(\c2ccc(OC)cc2)c2ncc[nH]2)C(=O)N3)CC1 [Entry 15, (3Z)-5-[(1-ethylpiperidin-4-yl)amino]-3-{1H-imidazol-2-yl[4-(methyloxy)phenyl]methylidene}-1,3-dihydro-2H-indol-2-one]	< 50 nM	500 to 5000 nM	50 to 500 nM	500 to 5000 nM	< 50 nM	< 50 nM	500 to 5000 nM	–
O=C1Nc2ccc(NC3CCN(CCN4CCOCC4)CC3)cc2/C1=C(\c1cccc(F)c1)c1ncc[nH]1 [Entry 83]	< 50 nM	500 to 5000 nM	–	> 5000 nM	< 50 nM	50 to 500 nM	> 5000 nM	< 50 nM
CCN(CC)CCN1CCC(Nc2ccc3c(c2)/C(=C(\c2cccc(F)c2)c2ncc[nH]2)C(=O)N3)CC1 [Entry 84, (3Z)-5-({1-[2-(diethylamino)ethyl]piperidin-4-yl}amino)-3-[(3-fluorophenyl)(1H-imidazol-2-yl)methylidene]-1,3-dihydro-2H-indol-2-one]	50 to 500 nM	500 to 5000 nM	–	> 5000 nM	50 to 500 nM	50 to 500 nM	> 5000 nM	50 to 500 nM
O=C1Nc2ccc(NC3CCN(CCN4CCCC4)CC3)cc2/C1=C(\c1cccc(F)c1)c1ncc[nH]1 [Entry 85, (3Z)-3-[(3-fluorophenyl)(1H-imidazol-2-yl)methylidene]-5-{[1-(2-pyrrolidin-1-ylethyl)piperidin-4-yl]amino}-1,3-dihydro-2H-indol-2-one]	< 50 nM	500 to 5000 nM	–	> 5000 nM	< 50 nM	50 to 500 nM	> 5000 nM	50 to 500 nM

Other lines, results leading:

IC50 [1]	IC50 (EphA2)	IC50 (Flt-1)	IC50 (EGFR)	IC50 (PDGFR alpha)	IC50 (Fyn)	IC50 (IRK)	IC50 (FGFR1)	SMILES
< 50 nM	50 to 500 nM	–	50 to 500 nM	< 50 nM	< 50 nM	500 to 5000 nM	< 50 nM	Cc1ccc(/C(=C2/C(=O)Nc3ccc(NC4CCN(C)CC4)cc32)c2ncc[nH]2)cc1 [Entry 86]
50 to 500 nM	> 5000 nM	–	> 5000 nM	50 to 500 nM	> 5000 nM	> 5000 nM	50 to 500 nM	COCCN1CCC(Nc2ccc3c(c2)/C(=C(\c2cccc(F)c2)c2ncn[nH]2)C(=O)N3)CC1 [Entry 87]
50 to 500 nM	> 5000 nM	–	> 5000 nM	< 50 nM	50 to 500 nM	> 5000 nM	50 to 500 nM	CCOC(=O)c1[nH]c(/C(=C2\C(=O)Nc3ccc(NC4CCN(CCOC)CC4)cc32)c2cccc(F)c2)nc1C [Entry 88, ethyl 2-{(Z)-(3-fluorophenyl)[5-({1-[2-(methyloxy)ethyl]piperidin-4-yl}amino)-2-oxo-1,2-dihydro-3H-indol-3-ylidene]methyl}-4-methyl-1H-imidazole-5-carboxylate]
< 50 nM	500 to 5000 nM	–	> 5000 nM	< 50 nM	< 50 nM	500 to 5000 nM	< 50 nM	COCCN1CCC(Nc2ccc3c(c2)/C(=C(\c2ccccc2)c2ncc[nH]2)C(=O)N3)CC1 [Entry 89]
< 50 nM	500 to 5000 nM	–	> 5000 nM	< 50 nM	< 50 nM	> 5000 nM	50 to 500 nM	COCCN1CCC(Nc2ccc3c(c2)/C(=C(\c2ccc(OC)cc2)c2ncc[nH]2)C(=O)N3)CC1 [Entry 90]
< 50 nM	500 to 5000 nM	–	> 5000 nM	< 50 nM	< 50 nM	500 to 5000 nM	< 50 nM	COCCN1CCC(Nc2ccc3c(c2)/C(=C(\c2ccc(Cl)cc2)c2ncc[nH]2)C(=O)N3)CC1 [Entry 91, (3Z)-3-[(4-chlorophenyl)(1H-imidazol-2-yl)methylidene]-5-({1-[2-(methyloxy)ethyl]piperidin-4-yl}amino)-1,3-dihydro-2H-indol-2-one]
< 50 nM	500 to 5000 nM	–	> 5000 nM	< 50 nM	50 to 500 nM	> 5000 nM	50 to 500 nM	COCCN1CCC(Nc2ccc3c(c2)/C(=C(\c2ccc(C(F)(F)F)c(F)c2)c2ncc[nH]2)C(=O)N3)CC1 [Entry 92]
